Article PMC9525653, “Mutations conferring SO4^2− pumping ability on the cyanobacterial anion pump rhodopsin and the resultant unique features of the mutant” (Scientific Reports, 2022)

What was measured:
MrHR [1] = biological target: MrHR (Mastigocladopsis repens, UniProt A0A6P3CW41, E182T); test: biochemical
MrHR [2] = biological target: MrHR (Mastigocladopsis repens, UniProt A0A6P3CW41); test: biochemical
MrHR (Mastigocladopsis repens, UniProt A0A6P3CW41), sequence (A0A6P3CW41 1-232): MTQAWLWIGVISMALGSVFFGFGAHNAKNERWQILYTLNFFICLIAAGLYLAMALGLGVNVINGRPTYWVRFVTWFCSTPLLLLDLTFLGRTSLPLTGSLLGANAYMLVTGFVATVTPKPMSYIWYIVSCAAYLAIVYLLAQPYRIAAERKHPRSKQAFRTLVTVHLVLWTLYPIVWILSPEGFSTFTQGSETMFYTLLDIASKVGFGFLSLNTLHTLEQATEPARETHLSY

MrHR (Mastigocladopsis repens, UniProt A0A6P3CW41, E182T), sequence (A0A6P3CW41 1-232 E182T): as the sequence (A0A6P3CW41 1-232) above, with E182T counted along it

## Cl [Cl^−]
MrHR [1]
  Kd: 1.18 mM
MrHR [2]
  Kd: 4.98 mM
